# Experimental data as given in the NIST ThermoML archive (doi:10.1016/j.jct.2012.03.025).
# ± gives the expanded uncertainty stated by the source.
# Test: not given
# Conditions: 308.15 K; 101 kPa; Liquid; Vibrating tube method
row,mass density,SMILES
1,994.058 ± 0.044 kg/m3,O [water]

# Test: mn = molality of the nth substance listed, in mol/kg
# Conditions: 308.15 K; 101 kPa; Liquid; Vibrating tube method; m2 = 0
row,mass density,SMILES
1,994.058 ± 0.079 kg/m3,O [water] + CCCCn1cc[n+](C)c1.O=S(=O)([O-])C(F)(F)F
2,994.058 ± 0.092 kg/m3,O [water] + CCCCn1cc[n+](C)c1.[I-]
3,994.058 ± 0.11 kg/m3,O [water] + CC(=O)[O-].CCCCn1cc[n+](C)c1
4,994.058 ± 0.055 kg/m3,O [water] + CCCCn1cc[n+](C)c1.F[B-](F)(F)F
5,994.058 ± 0.064 kg/m3,O [water] + CCCCn1cc[n+](C)c1.[Br-]
6,994.058 ± 0.044 kg/m3,O [water] + CCCCn1cc[n+](C)c1.[Cl-]
